The test system of data set [1] is Escherichia coli. Kind of data set: Antibacterial activity against Escherichia coli DH5alpha assessed as bacterial cell density at 500 uM relative to control. The format is functional, DH5[alpha].
In data set [2] the test system is Pseudomonas aeruginosa. Kind of data set: Antibacterial activity against Pseudomonas aeruginosa NBRC13275 assessed as bacterial cell density at 500 uM relative to control. The data set is classed as functional.
Data set [3] deals with Staphylococcus aureus. Kind of data set: Antibacterial activity against Staphylococcus aureus NBRC13276 assessed as bacterial cell density at 500 uM relative to control. The format is functional.
The subject of data set [4] is Streptococcus mutans. Description: Antibacterial activity against Streptococcus mutans NBRC13955 assessed as bacterial cell density at 500 uM relative to control. The format is functional.
Data set [5] relates to Escherichia coli. Kind of data set: Antibiofilm activity against Escherichia coli DH5alpha assessed as inhibition of biofilm formation at 500 uM incubated for 24 hrs by crystal violet staining based microtiter plate reader assay relative to control; values are per cent of control. To be noted: DH5[alpha].
The test system of data set [6] is Streptococcus mutans. Description: Antibiofilm activity against Streptococcus mutans NBRC13955 assessed as inhibition of biofilm formation at 500 uM incubated for 24 hrs by crystal violet staining based microtiter plate reader assay relative to control; values are per cent of control. To be noted: NBRC13955, 24 h.
The subject of data set [7] is Pseudomonas aeruginosa. Kind of data set: Antibiofilm activity against Pseudomonas aeruginosa NBRC13275 assessed as inhibition of biofilm formation at 500 uM incubated for 6 hrs by crystal violet staining based microtiter plate reader assay relative to control; values are per cent of control. To be noted: NBRC13275, 6 h.
Data set [8] concerns Staphylococcus aureus. Kind of data set: Antibiofilm activity against Staphylococcus aureus NBRC13276 assessed as inhibition of biofilm formation at 500 uM incubated for 24 hrs by crystal violet staining based microtiter plate reader assay relative to control; values are per cent of control. To be noted: NBRC13276, 24 h.
The nature of data set [9]: Growth inhibition of Staphylococcus aureus NBRC13276 at 1000 uM.
For data set [10], the system named is Pseudomonas aeruginosa. Description: Antimicrobial activity against Pseudomonas aeruginosa assessed as inhibition of flagella synthesis relative to control. The format is functional, organism-based.

The structures appear in SMILES notation. Active and inactive are the calls of the source. The rule behind the calls is not given here.

This note sets out measurements from ChEMBL document CHEMBL4680303, “Amine skeleton-based c-di-GMP derivatives as biofilm formation inhibitors” (Bioorg Med Chem Lett, 2021).

In the case of `Nc1nc2c(ncn2[C@@H]2O[C@@H]3COP(=O)(O)O[C@H]4[C@@H](O)[C@H](n5cnc6c(=O)[nH]c(N)nc65)O[C@@H]4COP(=O)(O)O[C@H]3[C@H]2O)c(=O)[nH]1`, the Activity in the data set on Escherichia coli [1] was determined as 76%; with Pseudomonas aeruginosa [2], 78%; in the data set on Staphylococcus aureus [3], 106%; in the data set on Streptococcus mutans [4], 98%. The biofilm formation (% of control) at 500 µM in the data set on Escherichia coli [5] amounted to 81%; in the data set on Streptococcus mutans [6], 18%; in the data set on Pseudomonas aeruginosa [7], 48%; with Staphylococcus aureus [8], 123%.
With `Nc1nc2c(ncn2CC(=O)NCCN(CCNC(=O)Cn2cnc3c(=O)[nH]c(N)nc32)CC(=O)O)c(=O)[nH]1`, the Activity in the data set with Escherichia coli [1] worked out at 95%; in the data set on Pseudomonas aeruginosa [2] it was 126%; in the data set with Staphylococcus aureus [3], 99%; in the data set on Streptococcus mutans [4], 188%. For the same compound, the biofilm formation (% of control) at 500 µM is 138% in the data set with Escherichia coli [5], 78% in the data set with Streptococcus mutans [6], 82% in the data set with Pseudomonas aeruginosa [7] and 87% with Staphylococcus aureus [8].
Take `NCCN(CCNC(=O)Cn1cnc2c(=O)[nH]c(N)nc21)C(=O)Cn1cnc2c(=O)[nH]c(N)nc21`: the Activity is 95% in the data set on Escherichia coli [1], 116% with Pseudomonas aeruginosa [2], 124% in the data set on Staphylococcus aureus [3] and 98% in the data set with Streptococcus mutans [4]. Also, the biofilm formation (% of control) at 500 µM is 104% in the data set with Escherichia coli [5], 87% in the data set with Streptococcus mutans [6], 103% in the data set with Pseudomonas aeruginosa [7] and 87% in the data set with Staphylococcus aureus [8].
Take `Nc1nc2c(ncn2CC(=O)N2CCN(C(=O)OCc3ccccc3)CCN(C(=O)Cn3cnc4c(=O)[nH]c(N)nc43)CCN(C(=O)OCc3ccccc3)CC2)c(=O)[nH]1`: the Activity with Escherichia coli [1] was found to be 91%; in the data set on Pseudomonas aeruginosa [2] it was 105%; in the data set with Staphylococcus aureus [3] it was 111%; with Streptococcus mutans [4] it was 143%. Besides, the biofilm formation (% of control) at 500 µM in the data set with Escherichia coli [5] turned out to be 138%; in the data set on Streptococcus mutans [6], 17%; with Pseudomonas aeruginosa [7], 86%; with Staphylococcus aureus [8], 80%.
Turning to `CC(C)C(=O)N(CCNC(=O)Cn1cnc2c(=O)[nH]c(N)nc21)CCNC(=O)Cn1cnc2c(=O)[nH]c(N)nc21`, the Activity with Escherichia coli [1] is reported as 97%; in the data set on Pseudomonas aeruginosa [2] it was 98%; in the data set with Staphylococcus aureus [3], 92%; in the data set on Streptococcus mutans [4] it was 104%. The biofilm formation (% of control) at 500 µM came to 107% with Escherichia coli [5], 147% in the data set on Streptococcus mutans [6], 83% in the data set on Pseudomonas aeruginosa [7] and 103% with Staphylococcus aureus [8].
On to `CCC(=O)N(CCNC(=O)Cn1cnc2c(=O)[nH]c(N)nc21)CCNC(=O)Cn1cnc2c(=O)[nH]c(N)nc21`, for which the Activity was 95% in the data set with Escherichia coli [1], 98% with Pseudomonas aeruginosa [2], 92% in the data set with Staphylococcus aureus [3] and 106% with Streptococcus mutans [4]. The biofilm formation (% of control) at 500 µM in the data set with Escherichia coli [5] came out at 97%; with Streptococcus mutans [6], 125%; in the data set on Pseudomonas aeruginosa [7] it was 94%; in the data set on Staphylococcus aureus [8], 85%.
For the compound `Nc1nc2c(ncn2CC(=O)N2CCNCCN(C(=O)Cn3cnc4c(=O)[nH]c(N)nc43)CCNCC2)c(=O)[nH]1`, the Activity with Escherichia coli [1] was 93%; with Pseudomonas aeruginosa [2] it was 100%; in the data set with Staphylococcus aureus [3], 108%; with Streptococcus mutans [4], 138%. Moreover, the biofilm formation (% of control) at 500 µM in the data set on Escherichia coli [5] is 133%; in the data set on Streptococcus mutans [6], 96%; with Pseudomonas aeruginosa [7], 85%; with Staphylococcus aureus [8], 89%.
For `CC(=O)N(CCNC(=O)Cn1cnc2c(=O)[nH]c(N)nc21)CCNC(=O)Cn1cnc2c(=O)[nH]c(N)nc21`, the Activity in the data set with Escherichia coli [1] is 101%; in the data set with Pseudomonas aeruginosa [2] it was 119%; with Staphylococcus aureus [3] it was 108%; in the data set on Streptococcus mutans [4], 154%. Further, the biofilm formation (% of control) at 500 µM in the data set on Escherichia coli [5] turned out to be 116%; in the data set with Streptococcus mutans [6], 87%; with Pseudomonas aeruginosa [7] it was 104%; in the data set on Staphylococcus aureus [8], 76%.
On to `Nc1nc2c(ncn2CC(=O)N2CCN(CC(=O)O)CCN(C(=O)Cn3cnc4c(=O)[nH]c(N)nc43)CCN(CC(=O)O)CC2)c(=O)[nH]1`, for which the Activity with Escherichia coli [1] is recorded as 85%; in the data set with Pseudomonas aeruginosa [2], 90%; in the data set on Staphylococcus aureus [3], 117%; in the data set with Streptococcus mutans [4], 105%. For the same compound, the biofilm formation (% of control) at 500 µM with Escherichia coli [5] came out at 83%; with Streptococcus mutans [6], 90%; with Pseudomonas aeruginosa [7], 82%; in the data set with Staphylococcus aureus [8], 74%.
On to `Nc1nc2c(ncn2CC(=O)NCCNCCNC(=O)Cn2cnc3c(=O)[nH]c(N)nc32)c(=O)[nH]1`, for which the Activity in the data set with Escherichia coli [1] is 95%; in the data set on Pseudomonas aeruginosa [2] it was 112%; in the data set on Staphylococcus aureus [3], 102%; in the data set with Streptococcus mutans [4] it was 109%. The biofilm formation (% of control) at 500 µM with Escherichia coli [5] was determined as 99%; in the data set with Streptococcus mutans [6], 98%; in the data set on Pseudomonas aeruginosa [7] it was 87%; in the data set on Staphylococcus aureus [8] it was 42%.
With `CC(=O)N1CCN(C(=O)Cn2cnc3c(=O)[nH]c(N)nc32)CCN(C(C)=O)CCN(C(=O)Cn2cnc3c(=O)[nH]c(N)nc32)CC1`, the Activity in the data set on Escherichia coli [1] is 52%; in the data set with Pseudomonas aeruginosa [2] it was 90%; with Staphylococcus aureus [3], 150%; in the data set on Streptococcus mutans [4] it was 136%. In addition, the “growth inhibition (GI)” value in [9] was “Non-Toxic”. Also, the result with Pseudomonas aeruginosa [10] was inactive. In addition, the biofilm formation (% of control) at 500 µM in the data set with Escherichia coli [5] was determined as 36%; in the data set with Streptococcus mutans [6] it was 40%; in the data set on Pseudomonas aeruginosa [7], 60%; in the data set with Staphylococcus aureus [8] it was 20%.
Regarding `CCC(=O)N1CCN(C(=O)Cn2cnc3c(=O)[nH]c(N)nc32)CCN(C(=O)CC)CCN(C(=O)Cn2cnc3c(=O)[nH]c(N)nc32)CC1`, the Activity in the data set on Escherichia coli [1] stood at 105%; in the data set with Pseudomonas aeruginosa [2], 118%; in the data set on Staphylococcus aureus [3], 124%; in the data set on Streptococcus mutans [4], 117%. Further, the biofilm formation (% of control) at 500 µM came out at 153% with Escherichia coli [5], 46% with Streptococcus mutans [6], 76% in the data set with Pseudomonas aeruginosa [7] and 76% with Staphylococcus aureus [8].
Consider `CC(=O)NCCNCCNC(=O)Cn1cnc2c(=O)[nH]c(N)nc21`, for which the Activity in the data set on Escherichia coli [1] amounted to 85%; in the data set with Pseudomonas aeruginosa [2] it was 119%; in the data set with Staphylococcus aureus [3], 100%; in the data set on Streptococcus mutans [4], 92%. Moreover, the biofilm formation (% of control) at 500 µM amounted to 108% in the data set with Escherichia coli [5], 101% with Streptococcus mutans [6], 99% in the data set with Pseudomonas aeruginosa [7] and 135% in the data set on Staphylococcus aureus [8].
For the compound `CC(C)C(=O)N1CCN(C(=O)Cn2cnc3c(=O)[nH]c(N)nc32)CCN(C(=O)C(C)C)CCN(C(=O)Cn2cnc3c(=O)[nH]c(N)nc32)CC1`, the Activity in the data set with Escherichia coli [1] is recorded as 559%; in the data set on Pseudomonas aeruginosa [2], 313%; in the data set on Staphylococcus aureus [3], 267%; in the data set with Streptococcus mutans [4], 206%. Moreover, the biofilm formation (% of control) at 500 µM was 118% in the data set with Escherichia coli [5], 88% in the data set with Streptococcus mutans [6], 114% with Pseudomonas aeruginosa [7] and 87% with Staphylococcus aureus [8].
With `Nc1nc2c(ncn2CC(=O)N2CCNCCN(C(=O)Cn3cnc4c(=O)[nH]c(N)nc43)CC2)c(=O)[nH]1`, the Activity with Escherichia coli [1] was found to be 95%; in the data set with Pseudomonas aeruginosa [2] it was 105%; in the data set with Staphylococcus aureus [3] it was 103%; in the data set on Streptococcus mutans [4] it was 121%. The biofilm formation (% of control) at 500 µM with Escherichia coli [5] came to 103%; in the data set with Streptococcus mutans [6] it was 92%; with Pseudomonas aeruginosa [7], 105%; in the data set on Staphylococcus aureus [8] it was 92%.
